How the values were obtained:
[1] = tested on: TCR27 (TRAJ24+ TCR) in J76-NFATRE-luc Jurkat cells; experiment: T cell activation assay using NFAT-RE luciferase reporter, TCR27 Jurkat transfectants with K562-DQ6 APCs; format: cell-based, human; set-up: dose or concentration left out as unconfirmed; details: HCRT peptide, 1 × 10^5 K562-DQ6 APCs + 1 × 10^5 TCR27 J76-NFATRE-luc cells, 37 °C, 1 day; Nano-Glo chemiluminescence
Source text: Fig. 6 Validation of tetramer binding and TCR signaling. a TCRs tested by transfection into Jurkat-luciferase reporter system. b Dot-plots of Jurkat transfectants expressing TCRs as shown in a. Expression of GFP indicates a successful transfection of plasmids directing the expression of TCRs. c Tetramer staining of TCR^+ Jurkat cells with percentages of tetramer^+ cells indicated. d MFIs of the tetramer-associated signal on the surface of TCR^+ cells are compared. e Jurkat cells expressing the indicated TCR were incubated with DQ6-expressing APCs (HLA class II^- K562 cells transfected with DQ6) in the presence of HCRT peptides or control stimuli: PBS (negative) or anti-CD3/anti-CD28 Abs (positive). Luciferase activity reflecting TCR-mediated signaling was measured and analyzed as previously described. […] Significance (P < 0.05, bolded) is determined using t-test comparing the indicated TCR and the TCR control
To encode the entire α/β chains of a candidate TCR, the nucleotide sequences for CDR3α and CDR3β (Supplementary Data 3) were incorporated in frame with the corresponding V(D)J genes (IMGT/V-QUEST[43]). TCRα/β genes were then synthesized and cloned into a plasmid pEF1a-TCRA_2A_TCRB_IRES-AcGFP1 (by GenScript). Each reconstructed plasmid uses a mammalian promoter, EF1a to direct co-expression of α and β chains of one candidate TCR. TCRA and TCRB are separated by the 2A self-cleaving peptide sequence. For selection purposes, the plasmid also encodes the green fluorescence protein (GFP) and neomycin resistance gene, with expression driven by separate promoters. […]
The TCR transfectants of J76-NFATRE-luc cells expresses the NFAT-RE (response element)-luciferase reporter gene allowing the conversion of T cell activation signaling to luciferase activity. […] The co-culture was incubated with various stimuli at 37 °C for 1 day before quantification of the luciferase activity. […] The mixture was then transferred to a flat-bottom white 96-well plate (Costar) for a measurement of chemiluminescence using a plate reader.

[2] = biological target: soluble DQ6 (HLA-DQA1*01:02/DQB1*06:02) (Homo sapiens, UniProt P01909+P01920, A157G/A45G/C70R/E118A/E183D/E77G/F83G/G63E/H151Q/H199R/H252R/H253Q/I129T/I235V/I88M/INS77G/K197Q/L117V/L119F/L178F/L71W/L74F/L85Q/L91A/L98M/N214S/P87R/Q116E/Q76K/R102G/R240Q/R75S/R78G/S102Y/S185I/S41F/S97I/T121G/T122I/T172A/T86R/V229M/V68A/V73E/Y34C/Y41F/Y58L); experiment: Peptide competition assay: inhibition of DQ6 binding of biotinylated EBV486–500; details: test peptide 40 μM, 20 h
Procedure: To identify DQ6-restricted T epitopes in prepro-HCRT (the HCRT precursor), we used a modified version of the peptide-loading assay[31] in which HCRT peptides were tested for the ability to inhibit DQ6-binding of EBV486–500, a known DQ6-binding epitope derived from Epstein-Bar virus. We evaluated overlapping 15-mer peptides, offset by four amino acids (aa), covering the entire prepro-HCRT sequence (Supplementary Data 1). […] These were consistent with in silico peptide-binding predictions using the NetMHCIIpan3.2 software[33] (Supplementary Fig. 1a–c). The nine peptides span five regions (i–v) of prepro-HCRT. A strong binder (>75% competition), HCRT1–15, was within the signal peptide region (i) and contained a 9-aa core, […], previously shown to bind DQ6 by X-ray structure. Two overlapping peptides span the C-terminus of the signal peptide and N-terminus of the secreted HCRT1 neurotransmitter. This region (ii) contained three possible registers as predicted by NetMHCIIpan3.2 using nonamers (Supplementary Fig. 1d). […]
Fig. 2 DQ6-binding cores in prepro-HCRT and their structural impacts. a Thirty overlapping peptides covering prepro-HCRT were added, individually, into a reaction containing soluble DQ6, bio-EBV486–500 peptide, and HLA-DM (a peptide loading catalyst). DQ6-associated bio-EBV486–500 was measured at steady state by ELISA[31]. %Competition = 1−%DQ6/EBV binding. […]

[3] = tested on: CD4+ T cells from T1N donors; experiment: In vitro peptide stimulation of CD4+ T cells with peptide-loaded fixed T2DQ6 cells, then DQ6-peptide tetramer staining; format: cell-based, human; details: for Frequency of corresponding DQ6-peptide tetramer+/CD4+ T cells after in vitro stimulation with the peptide: T2DQ6 pulsed with 1 μM peptide, co-culture with CD4+ T cells of T1N donors, IL-7/IL-2, with vs without peptide, n = 13 donors (HCRT peptides)
Procedure: Fig. 3 Tetramer^+/CD4^+ T cells in DQ6^+ donors. a Dot-plots of CD4^+ T cells stimulated in vitro with the indicated peptides followed by staining with the indicated tetramers. Frequencies (%) of tetramer^+/CD4^+ T cells are indicated. b Comparison between frequencies of tetramer^+ T cells from the same T1N donor (paired as indicated) with and without peptide stimulation. Significance (P < 0.05, bolded) is determined using the paired samples t-test (n = 13 donors). c Enrichment (with peptide stimulation vs. without) of DQ6-HCRT56–69 tetramer^+/CD4^+ T cells in HCRT87–100 peptide stimulated culture. d Frequencies or e tetramer-binding ranks (mean index fluorescence intensity) of tetramer^+ T cells from patients and controls (sample information summarized in Table 1) stained with the indicated tetramers. Statistical analysis compares control and patient samples within each tetramer specificity. Significance (P < 0.05, bolded) is determined using the unequal variance t-test. The error bar represents mean ± SEM
To test for the presence of DQ6-HCRTpeptide tetramer^+/CD4^+ T cells, a peptide-loaded antigen-presenting cell (APC) line T2DQ6 (fixed to limit APC proliferation) was co-cultured with T cells for DQ6-restricted antigen stimulation. T2DQ6 was constructed by stable transfection of DQ6 (DQA1*01:02/DQB1*06:02) into T2, a class II-deficient TxB hybrid cell[31]. T2DQ6 cells were maintained in IMDM, GlutaMAX supplemented media (Thermo Fisher Scientific) with 10% HI FBS, 1% penicillin/streptomycin (P/S) and 1 mg/ml G418 (to maintain selective pressure on DQ6 transfectants). To load antigen, T2DQ6 cells were pulsed with peptides (i.e., EBV486–500, HCRT56–69, HCRT87–100, synthesized by Genscript) at 1 μM final concentration and incubated for 6 h at 37 °C. After peptide loading, 10 million T2DQ6 cells were washed with phosphate buffered saline (PBS) and then fixed by incubating with 0.025% glutaraldehyde in 2 ml PBS at RT for 30 s. After the addition of another 2 ml PBS, the cells were incubated for another 10 min at RT. Fixed T2DQ6 was washed twice with PBS and once with complete RPMI (RPMI 1640 medium supplemented with 10% HI human AB serum, 2 mM glutamine and 1% PS, Thermo Fisher Scientific) before mixing with CD4^+ T cells. Human PBMCs frozen in NUNC tubes were thawed quickly at 37 °C and added slowly to 10 ml warm complete RPMI. PBMCs were pelleted and resuspended in cold buffer for CD4^+ T cell isolation. Cells were isolated from the PBMCs by negative selection, using the CD4^+ cell isolation kit, according to the manufacturer’s instructions (Miltenyi Biotec). […]

MNLPSTKVSWAAV [HCRT1–13]
TCR-mediated signaling (luciferase activity) of TCR27 transfectants [1]: null function

MNLPSTKVSWAAVTL [Hcrt1-15, 15-mer overlapping peptide of prepro-HCRT]
%Competition (inhibition of the indicator EBV peptide binding to DQ6) ([2]; 1 μM biotinylated EBV486–500, 25 nM thrombin-cleaved DQ6-CLIP87–101, 100 nM DM, acetate pH 4.6, 37 °C, DELFIA Eu-streptavidin time-resolved fluorescence, %Competition = 1−%DQ6/EBV binding, mean, n = 4): > 75%

SGNHAAGILTM-NH2 [HCRT87–97-NH2]
TCR-mediated signaling (luciferase activity) of TCR27 transfectants [1]: stronger signaling

ALLSSGAAAQPLPDC [Hcrt25-39, 15-mer overlapping peptide of prepro-HCRT]
DQ6 binder class by %Competition ([2]; same assay as E1, pH 4.6, 37 °C): strong

SGNHAAGILTMGRR [HCRT87–100]
Frequency of corresponding DQ6-peptide tetramer+/CD4+ T cells after in vitro stimulation with the peptide [3]: significantly increased
DQ6-HCRT56–69 tetramer+/CD4+ T cells in HCRT87–100 peptide stimulated culture ([3]; with peptide stimulation vs without, some T1N donors): in vitro enrichment
TCR-mediated signaling (luciferase activity) of TCR27 transfectants [1]: moderate TCR-mediated signaling

AGNHAAGILTLGKR [HCRT56–69]
Frequency of corresponding DQ6-peptide tetramer+/CD4+ T cells after in vitro stimulation with the peptide [3]: significantly increased

EBV486-500: known DQ6-binding epitope derived from Epstein-Barr virus nuclear antigen; positive control peptide [reference compound]
Frequency of corresponding DQ6-peptide tetramer+/CD4+ T cells after in vitro stimulation with the peptide [3]: enrichment

— article PMC6868281, “In vivo clonal expansion and phenotypes of hypocretin-specific CD4^+ T cells in narcolepsy patients and controls” (Nature Communications, 2019)
